The test system of this data set is patients ≥2 and <25 years with brain cancer. The data set is described as follows: Phase I/II trial of single agent mirdametinib in children, adolescents and young adults with brain cancer. It is filed as in vivo, human. As for the experimental part: Example 1: Phase I/II Evaluation of Single Agent Mirdametinib, a Brain-Penetrant MEK1/2 Inhibitor, for the Treatment of Children, Adolescents, and Young Adults with Brain Cancer A multi-arm […] trial of mirdametinib is to be conducted in patients ≥2 and <25 years with brain cancer. Phase I requires participants have no prior exposure to MEK inhibitors and recurrent/progressive disease with biopsy-proven evidence of MAPK pathway activation. Three escalating dose levels (2 mg/m^2/dose BID, 2.5 mg/m^2/dose BID and 3 mg/m^2/dose BID) are planned using a rolling 6 design. The median age enrolled in the study is 10 years old (3-21).

In the case of `O=C(NOC[C@H](O)CO)c1ccc(F)c(F)c1Nc1ccc(I)cc1F` (single isomer, unassigned) [mirdametinib], for the setting “2, 2.5 and 3 mg/m^2/dose BID, patients with brain cancer”, the “MEK related retinopathy or cardiopathy” value is “No MEK related retinopathy or cardiopathy is observed”. For the same compound, the disease progressions entry (2, 2.5 and 3 mg/m^2/dose BID, patients with recurrent/progressive brain cancer with MAPK pathway activation) is given as “No disease progressions”. The dose-limiting toxicities result (all three dose levels (2, 2.5 and 3 mg/m^2/dose BID), patients with brain cancer, no prior MEK inhibitor) is listed as “No dose-limiting toxicities”. For the same compound, where the note is “dosed continuously in patients with brain cancer”, the “clinical activity (overall statement)” value is “clinically promising”.

(Values after patent US12263146B2, “Non-linear dosing of mirdametinib” (SpringWorks Therapeutics Inc., priority 2022, dated 2025).)
